The values below come from article PMC4098076 (Nature, 2014).

For this test, the target named is T1, aryl hydrocarbon receptor (AhR) (Mus musculus, UniProt P30561).
T1 sequence (P30561 10-848): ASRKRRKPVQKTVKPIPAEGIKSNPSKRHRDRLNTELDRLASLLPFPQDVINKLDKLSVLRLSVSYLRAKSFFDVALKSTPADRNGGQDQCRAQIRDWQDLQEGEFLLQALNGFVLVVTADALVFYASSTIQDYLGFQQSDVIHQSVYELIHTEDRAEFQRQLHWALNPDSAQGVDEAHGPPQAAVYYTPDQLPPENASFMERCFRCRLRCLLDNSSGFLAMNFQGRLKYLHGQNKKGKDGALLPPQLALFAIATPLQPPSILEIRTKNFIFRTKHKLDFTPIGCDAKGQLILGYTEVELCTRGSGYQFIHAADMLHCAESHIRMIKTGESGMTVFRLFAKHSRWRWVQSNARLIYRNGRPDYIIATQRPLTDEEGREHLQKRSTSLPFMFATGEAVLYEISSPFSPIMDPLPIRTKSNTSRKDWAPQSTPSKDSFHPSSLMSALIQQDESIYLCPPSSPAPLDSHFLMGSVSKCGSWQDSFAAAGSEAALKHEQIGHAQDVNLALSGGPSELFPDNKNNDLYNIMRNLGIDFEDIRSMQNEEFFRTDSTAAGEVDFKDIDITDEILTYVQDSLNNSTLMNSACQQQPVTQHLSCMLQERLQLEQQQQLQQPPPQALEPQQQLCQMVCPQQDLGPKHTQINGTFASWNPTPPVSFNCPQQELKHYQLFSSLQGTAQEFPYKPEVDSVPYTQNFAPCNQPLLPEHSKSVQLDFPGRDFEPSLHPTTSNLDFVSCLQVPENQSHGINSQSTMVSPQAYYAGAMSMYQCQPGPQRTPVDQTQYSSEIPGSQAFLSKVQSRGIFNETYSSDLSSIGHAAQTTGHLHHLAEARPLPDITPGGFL
Briefly: radioligand competition with [3H]TCDD. The test is classed as binding. Background: In a radioligand displacement assay an active substance lowers the binding of a labelled ligand.

SMILES strings stand for the structures.

Regarding `Nc1ccccc1C(=O)C[C@H](N)C(=O)O` [L-kynurenine], the inhibition constant Ki is 21.6 µM.

A word on the Ki: it is the equilibrium dissociation constant of an inhibitor or competing ligand from its target.
